Measured values: patent US12336986B2, “Treatment and prevention of ocular neurodegenerative disorder” (The Jackson Laboratory, priority 2015, dated 2025)
Entries after “also recorded” stand apart in the source; their conditions may differ.

How the values were obtained:
D2 retinas [1] = experiment: Retinal NFL and IPL thinning (Nissl staining) in D2 mice; type: in vivo, mouse; conditions: NAM or pyruvate in drinking water
Experimental: For Nissl staining, frozen sections were warmed to room temperature, placed in 1:1 alcohol:chloroform ON, and rehydrated through serial alcohol gradient. Slides were washed once in distilled water and stained for 15 mins in 0.1% cresyl violet in distilled water before being differentiated in 95% alcohol, dehydrated in 100% alcohol and cleared in xylene. Slides were prepared as above. Nissl stained retinal sections were imaged using a Nikon Eclipse E200.

C57BL/6J (B6) mice = experiment: Soluble murine TNFα intravitreal injection model of RGC death; type: in vivo, mouse; conditions: NAM 550 mg/kg/day, 12-week post-TNFα administration
Experimental: To induce delayed retinal ganglion cell degeneration, soluble murine TNFα (1 ng/μL) was intravitrally injected as previously described (Nakazawa et al., J Neurosci 26, 12633-12641, 2006). […] Mice we sacrificed at 12-week and RGC counts performed.

γH2AX = experiment: DNA damage (γH2AX staining) in D2 retinas; type: in vivo, mouse; conditions: D2 mice, early glaucoma, NAM 550 mg/kg/day
Experimental: For immunofluorescence staining, mice were euthanized by cervical dislocation, their eyes enucleated and placed in 4% PFA ON. Retinas were dissected and flat-mounted onto slides, permeabilized with 0.1% Triton-X for 15 mins, blocked with 2% BSA in PBS and stained ON at RT in primary antibody (see below for list of antibodies).
After primary antibody incubation, retinas were washed 5 times in PBS, stained for 4 hrs at RT with secondary antibody. Slides were then washed a further 5 times with PBS, stained with DAPI for 15 mins, mounted with fluoromount, coverslipped and sealed with nail-polish.
For retinal sections, eyes were cryoprotected in 30% sucrose ON, frozen in OCT and cryosectioned at 18 μm. Slides were warmed to room temperature and the procedure above was followed. Retinas were imaged on a Zeiss AxioObserver for low resolution counts. Retinal sections were imaged on a Leica SP8 far higher resolution images.

DBA/2J (D2) mice = experiment: Optic nerve assessment (PPD staining) and determination of glaucomatous damage in D2 mice; type: in vivo, mouse; conditions: for risk factor of developing glaucoma (nerves with severe glaucoma): D2 mice at 12 months, control 0.6
Description: This diet has no effects on the ocular health of the mice.
PPD stains the myelin sheath of all axons but darkly stains the axoplasm of only damaged axons.
Briefly, intracranial portions of optic nerves were fixed in 4% PFA at RT for 48 hrs, processed and embedded in plastic. A segment of optic nerve from within a region up to 1 mm from the posterior surface of the sclera was sectioned (1 μm thick sections) and stained with PPD. Typically 30-50 sections are taken from each nerve.
Multiple sections of each nerve were considered when determining damage level. Optic nerves were analyzed and determined to have one of 3 damage levels: • (1) No or early damage (NOE) less than 5% axons damaged and no gliosis. This level of damage is seen in age and sex matched non-glaucomatous mice and is not due to glaucoma.

[2] = cited from earlier work
D2 retinas [3] = experiment: Lipid droplet formation in inner retina (Oil Red O staining); type: in vivo, mouse; conditions: D2 mice, 12-month, NAM 550 mg/kg/day
Experimental: For Oil Red O staining, slides were warmed to room temperature, washed quickly in 60% isopropanol, incubated at RT in Oil Red O and Haematoxylin for 15 mins, washed in 60% isopropanol again, mounted and coverslipped. Oil Red O stained retinal sections were imaged using a Nikon Eclipse […].

Question: What does the source list for NC(=O)c1cccnc1 [NAM, nicotinamide]?
Answer: retinal NFL and IPL thinning (Nissl) (D2 retinas [1]): prevented; also recorded: protects; loss of PERG amplitude in TNFα injected eyes (C57BL/6J (B6) mice): protected against; also recorded: prevents; soma loss / cell loss in TNFα injected eyes (C57BL/6J (B6) mice): protected against; also recorded: prevents; DNA damage (γH2AX staining) (γH2AX): limited levels of DNA damage; also recorded: prevents DNA damage; risk factor of developing glaucoma (nerves with severe glaucoma) (DBA/2J (D2) mice; high dose NAM 2,000 mg/kg/day): 0.06; risk factor of developing glaucoma (nerves with severe glaucoma) (DBA/2J (D2) mice; low dose NAM 550 mg/kg/day): 0.36; protection against glaucoma compared to Wld^S alone (DBA/2J (D2) mice; D2 mice bearing the Wld^S mutation, NAM 550 mg/kg/day): better protects against glaucoma than Wld^S alone; also recorded: significantly better than Wld^S alone; protection from glaucomatous damage (no glaucoma) (DBA/2J (D2) mice; D2 mice carrying the Wld^S mutation, NAM 550 mg/kg/day from 6 months): ~95%; treated eyes having no glaucomatous optic nerve damage (DBA/2J (D2) mice; D2 mice, NAM 2000 mg/kg/d (NAM^Hi), 12 months of age): 93%; protective in glaucoma (DBA/2J (D2) mice; D2 mice, NAM alone (550 mg/kg/day)): about 70%; decrease in risk factor of developing glaucoma (DBA/2J (D2) mice; D2 mice, high dose NAM 2,000 mg/kg/day): 10 fold; drop in risk factor (DBA/2J (D2) mice; D2 mice, low dose NAM 550 mg/kg/day): ~2 fold; doses with an incidence of hepatotoxicity ([2]; humans, attributed to impurities in older preparations): > 4 grams NAM per day; cases of jaundice reported ([2]; survey of 6000 patients on high doses): 3; lipid droplet formation in the inner retina (D2 retinas [3]): prevented; also recorded: prevents lipid droplet formation
